Laboratory results taken from patent US20240376075A1, “POLYMORPHIC FORMS OF AURORA A SELECTIVE INHIBITORS AND USES THEREOF” (Jacobio Pharmaceuticals Co., Ltd., priority 2021, published 2024).

What was measured:
[1] = Crystal form stability experiment (XRPD); format: physicochemical; conditions: for Results (XRPD): uncapped or sealed, protected from light, 7 days and 14 days
Method: 1. […] The crystal forms stability test was carried out under the specified experimental conditions.

[2] = PK in rat, oral suspension; format: in vivo; conditions: Sprague-Dawley, plasma, SD rats, PO: 5 mg/kg, suspension in 0.5% CMC-Na
Method: The plasma samples were collected at 0 hour (pre-dose), 0.083, 0.25, 0.5, 1, 2, 4, 6, 8, 24 hours post-dose. Plasma drug concentration was detected by LC-MS/MS. Pharmacokinetic parameters were calculated using WinNonlin's software with non-compartmental model.

[3] = PK in dog, oral suspension; format: in vivo, Beagle dogs; conditions: for AUC(0-t) / Cmax / half-life: dog, plasma, Beagle dogs, suspension in 0.5% CMC-Na
Method: Then plasma samples were collected at 0 hour (pre-dose), 0.083, 0.25, 0.5, 1, 2, 4, 6, 8, 24 hours post-dose. Plasma drug concentration was detected by LC-MS/MS. Pharmacokinetic parameters were calculated using WinNonlin's software with non-compartmental model.

**Q.** Which solid form conversion ([1]; after drying under 40° C. overnight) does the source give for Cc1cc(Nc2nc(C[C@@]3(C(=O)[O-])CCN(Cc4cccc(Cl)c4F)[C@H](C)C3)cc(C)c2F)n[nH]1.[K+] [Polymorph form II, potassium (2R,4R)-1-(3-chloro-2-fluorobenzyl)-4-((5-fluoro-4-methyl-6-((5-methyl-1H-pyrazol-3-yl)amino)pyridin-2-yl)methyl)-2-methylpiperidine-4-carboxylate] here?
**A.** converted to polymorph form I

**Q.** With Cc1cc(Nc2nc(C[C@@]3(C(=O)[O-])CCN(Cc4cccc(Cl)c4F)[C@H](C)C3)cc(C)c2F)n[nH]1.[K+] [Polymorph form III, potassium (2R,4R)-1-(3-chloro-2-fluorobenzyl)-4-((5-fluoro-4-methyl-6-((5-methyl-1H-pyrazol-3-yl)amino)pyridin-2-yl)methyl)-2-methylpiperidine-4-carboxylate] as the compound, how does the solid form conversion ([1]; when cooled back to room temperature) read?
**A.** converted to polymorph form I

**Q.** With Cc1cc(Nc2nc(C[C@@]3(C(=O)[O-])CCN(Cc4cccc(Cl)c4F)[C@H](C)C3)cc(C)c2F)n[nH]1.[K+] [amorphous, potassium (2R,4R)-1-(3-chloro-2-fluorobenzyl)-4-((5-fluoro-4-methyl-6-((5-methyl-1H-pyrazol-3-yl)amino)pyridin-2-yl)methyl)-2-methylpiperidine-4-carboxylate] as the compound, how does the solid form conversion ([1]; sealed for more than two weeks) read?
**A.** transformed to Polymorph form I

**Q.** Which AUC(0-t) [2] does the source give for Cc1cc(Nc2nc(C[C@@]3(C(=O)[O-])CCN(Cc4cccc(Cl)c4F)[C@H](C)C3)cc(C)c2F)n[nH]1.[K+] [polymorph form I, potassium (2R,4R)-1-(3-chloro-2-fluorobenzyl)-4-((5-fluoro-4-methyl-6-((3-methyl-1H-pyrazol-5-yl)amino)pyridin-2-yl)methyl)-2-methylpiperidine-4-carboxylate monohydrate] here?
**A.** 93.3 µg·h/mL

**Q.** What about the Cmax [2] of the same compound?
**A.** 12.4 µg/mL

**Q.** And the half-life [2]?
**A.** 4.11 h

**Q.** What about the “Results (XRPD)” value ([1]; Accelerated (40° C. ± 2° C., 75% RH ± 10% RH)) of the same compound?
**A.** Polymorph form I

**Q.** And the “Results (XRPD)” value ([1]; Long-time (25° C. ± 2° C., 65% RH ± 10% RH))?
**A.** Polymorph form I

**Q.** What about the “relative stability of the forms” value ([1]; at room temperature) of the same compound?
**A.** most stable

**Q.** What about the crystal form stability ([1]; long-term and accelerated conditions for 14 days) of the same compound?
**A.** remained unchanged

**Q.** And the AUC(0-t) ([3]; PO: 3 mg/kg)?
**A.** 45.5 µg·h/mL

**Q.** What about the Cmax ([3]; PO: 3 mg/kg) of the same compound?
**A.** 14.3 µg/mL

**Q.** What about the half-life ([3]; PO: 3 mg/kg) of the same compound?
**A.** 8.12 h

**Q.** What about the AUC(0-t) ([3]; PO: 10 mg/kg) of the same compound?
**A.** 165 µg·h/mL

**Q.** What about the Cmax ([3]; PO: 10 mg/kg) of the same compound?
**A.** 45 µg/mL

**Q.** What about the half-life ([3]; PO: 10 mg/kg) of the same compound?
**A.** 4.51 h

**Q.** What about the “absorption and exposure in vivo” value ([3]; oral, summary of Examples 6 and 7 (rat and dog)) of the same compound?
**A.** great absorption and a high exposure
